Laboratory results published in the NIST ThermoML archive (doi:10.1021/je900938b).
Numbers after ± are expanded uncertainties.

Columns and labels:
[1] = xn = mol fraction of the nth substance listed; details: 101 kPa, Liquid, x2 = 0; for mass density: Pycnometric method
[2] = 101.3 kPa, Liquid; for mass density: Pycnometric method

OCCO [1,2-ethanediol] + OCC(O)CO
[1]
Details | mass density [kg/m3] | viscosity [mPa·s]
298.15 K | – | 17.4 ± 0.39
303.15 K | 1107.1 ± 11 | 13.8 ± 0.31
308.15 K | 1103.5 ± 11 | 11.5 ± 0.26
313.15 K | 1100.3 ± 11 | 9.42 ± 0.21
318.15 K | – | 8.1 ± 0.18
323.15 K | 1093.5 ± 11 | 6.95 ± 0.15
328.15 K | – | 5.96 ± 0.13
333.15 K | 1085.6 ± 11 | 5.22 ± 0.11
338.15 K | 1082.1 ± 11 | 4.53 ± 0.1

OCC(O)CO [glycerol]
[2]
Details | mass density [kg/m3] | viscosity [mPa·s]
298.15 K | 1257.8 ± 13 | 943.8 ± 76
303.15 K | 1254.7 ± 13 | 628.9 ± 44
308.15 K | 1252.2 ± 12 | 431.9 ± 26
313.15 K | 1249.4 ± 12 | 295.9 ± 15
318.15 K | 1245.8 ± 12 | 185.8 ± 7.7
323.15 K | 1242.3 ± 12 | 151.2 ± 5.4
328.15 K | 1239.3 ± 12 | 108.4 ± 3.3
333.15 K | 1236.1 ± 12 | 84.8 ± 2.2
338.15 K | 1232.8 ± 12 | 62.2 ± 1.6

OCCO [1,2-ethanediol]
[2]
Details | mass density [kg/m3] | viscosity [mPa·s]
298.15 K | – | 17.4 ± 0.39
303.15 K | 1107.1 ± 11 | 13.8 ± 0.31
308.15 K | 1103.5 ± 11 | 11.5 ± 0.26
313.15 K | 1100.3 ± 11 | 9.42 ± 0.21
318.15 K | – | 8.1 ± 0.18
323.15 K | 1093.5 ± 11 | 6.95 ± 0.15
328.15 K | – | 5.96 ± 0.13
333.15 K | 1085.6 ± 11 | 5.22 ± 0.11
338.15 K | 1082.1 ± 11 | 4.53 ± 0.1
